# Source: patent US12629452B2, “Cranial suture regeneration” (University of Southern California, priority 2021, dated 2026)
# System: suture mesenchymal cells
# Experiment: Western blot of Runx2 and OPN (osteogenic differentiation)
# Assay type: cell-based, mouse
# Conditions: 20 μM Wnt agonist 1 or 100 nM LY2090314, one or two weeks, vs vehicle
# Description: Suture mesenchymal cells from one-month-old C57BL/6J mice were cultured with 20 μM Wnt agonist 1 (Selleck, S8178) or 100 nM LY2090314 (Selleck, S7063) for one or two weeks in αMEM. Medium was changed every other day. Total protein was extracted using a solution of loading buffer (Cell Signaling Technology, 7723S), protease inhibitor (Thermo Fisher Scientific, 1861278) and DTT (Cell Signaling Technology, 7723S), then separated by 10% SDS-PAGE and transferred to PVDF membranes (Millipore, ISEQ00005). Membranes were blocked with 5% non-fat dry milk dissolved in TBST for 2 hours at room temperature with gentle shaking, and then incubated with primary antibodies: anti-Runx2 (Cell signaling technology 12556, 1:1000), anti-OPN (Abcam ab63856, 1:500), and anti-βactin (Abcam ab20272, 1:1000) at 4° C. overnight followed by corresponding horseradish-peroxidase (HRP)-conjugated secondary antibodies. Protein expression was detected by Bio-Rad ChemiDoc Touch (Bio-Rad) and intensities of bands were quantitated by Image J software.
Compound,OPN expression level,Runx2 expression level
O=C1NC(=O)C(c2cnc3ccccn23)=C1c1cn2c3c(cc(F)cc13)CN(C(=O)N1CCCCC1)CC2 [LY2090314],significantly increased,significantly increased
COc1cccc(-c2cc(NCc3ccc4c(c3)OCO4)nc(N)n2)c1 [Wnt agonist 1],significantly increased,significantly increased
